# Biological target: T1, human GPR119 receptor (Homo sapiens, UniProt Q8TDV5, S329A/T327A)
# T1 construct: N-terminal leader […]; expressed in transfected cells
# T1 sequence (Q8TDV5 with tags, fused parts or gaps T327A/S329A): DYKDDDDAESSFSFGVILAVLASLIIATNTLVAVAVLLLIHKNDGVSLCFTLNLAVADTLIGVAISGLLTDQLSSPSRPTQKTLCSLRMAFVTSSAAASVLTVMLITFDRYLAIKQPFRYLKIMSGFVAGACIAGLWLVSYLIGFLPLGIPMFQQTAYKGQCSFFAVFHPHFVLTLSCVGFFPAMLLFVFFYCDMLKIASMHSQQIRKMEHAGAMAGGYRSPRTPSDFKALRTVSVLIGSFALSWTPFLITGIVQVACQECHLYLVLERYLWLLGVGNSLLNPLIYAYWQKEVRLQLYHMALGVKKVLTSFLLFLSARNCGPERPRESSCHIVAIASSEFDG
# Experiment: cAMP assay (LANCE cAMP-384) in HEK293 cells stably expressing mutant human GPR119 receptor
# Format: cell-based
# Details: HEK293, 20 min; at 10 μM; printed in EC50 column of the 36th table; read-out: stimulation in % at 10 μM
# Experimental: Quantitative detection of cAMP accumulation from cells expressing human GPR119 receptor was achieved using Perkin Elmer's LANCE cAMP-384 Kit (Cat#AD0264) according to the manufacturer's protocol. Briefly, HEK293 cells stably expressing a mutant form of the human GPR119 receptor (Methionine 1 replaced with the amino acid sequence […] (SEQ ID NO: 1), and T327 & S329 changed to alanines) were grown to 50-70% confluency in cell culture media (DMEM, 10% heat inactivated Fetal Bovine Serum, 50 I.U./mL penicillin, 50 μg/mL streptomycin, 10 mM HEPES, 20 μg/mL G418 Sulfate). On the day of the assay, GPR119 stable HEK293 cells were lifted from the tissue culture plate and 1000 cells/well were incubated along with various concentrations of test compounds for 20 min at 37° C. Detection Buffer (50mM HEPES, 10mM calcium chloride, 0.35% Triton X-100, 1 mg/mL BSA) containing cAMP-specific antibody was then added to all wells and allowed to equilibrate in the dark for 10 minutes at room temperature. Upon equilibration, Detection Buffer containing europium-labeled cAMP tracer complex was added to all wells and allowed to react for 1 hour at room temperature. After 1 hour, bound europium-labeled cAMP tracer was measured using a Perkin Elmer ViewLux. The quantity of cAMP generated in each well was derived from a standard curve. EC50 was determined using nonlinear regression analysis of the cAMP values over a range of agonist concentration (12 points spanning the range from 30 μM to 100pM).
# For some compounds for which no EC50 value could be determined, the efficacy is provided at a single concentration (10 μM) yielding % stimulation values.
row,Compound,activation at 10 µM
1,CN(C)c1ccc(CN2CCC(ON=C3CCN(c4ccc(S(C)(=O)=O)cc4F)CC3)CC2)cc1 [Example 66-36],83%

# Same assay, conditions: cAMP accumulation, HEK293 cells stably expressing mutant human GPR119; read-out: EC50
row,Compound,EC50
1,CC(C)OC(=O)N1CCC(ON=C2CCN(c3cc(F)c(-c4ccncc4)cc3F)CC2)CC1 [Example 27-5],378 nM
2,CC(C)OC(=O)N1CCC(ON=C2CCN(c3cc(F)c(Cn4cccc4)cc3F)CC2)CC1 [Example 14-14],467 nM
3,CC(C)OC(=O)N1CCC(ON=C2CCN(c3cccc(S(C)(=O)=O)c3)CC2)CC1 [Example 32-3],> 10000 nM
4,CC(C)OC(=O)N1CCC(ON=C2CCN(c3cc(F)c(-c4cnn(C)c4)cc3F)CC2)CC1 [Example 27-34],126 nM
5,CC(C)OC(=O)N1CCC(ON=C2CCN(c3cc(F)c(-c4ncccn4)cc3F)CC2)CC1 [Example 27-20],272 nM
6,Cc1cccc(N2CCC(=NOC3CCN(C(=O)OC(C)C)CC3)CC2)n1 [Example 2-8],> 10000 nM
7,CC(C)OC(=O)N1CCC(ON=C2CCN(c3ncc(Br)cn3)CC2)CC1 [Example 2-17],1180 nM
8,"CC(C)OC(=O)N1CCC(ON=C2CCN(c3cc(F)c(NC(N)=O)cc3F)CC2)CC1 [Example 37-1, 4-[1-(2,5-Difluoro-4-ureido-phenyl)-piperidin-4-ylideneaminooxy]-piperidine-1-carboxylic acid isopropyl ester]",71 nM
9,CC(C)OC(=O)N1CCC(ON=C2CCN(c3cc(F)c(CSCC(=O)O)cc3F)CC2)CC1 [Example 13-2],2410 nM
10,CC(C)OC(=O)N1CCC(ON=C2CCN(c3ccc(CO)c(Cl)n3)CC2)CC1 [Example 2-26],758 nM
11,Cc1ccc(-c2cc(F)c(N3CCC(=NOC4CCN(C(=O)OC(C)C)CC4)CC3)cc2F)s1 [Example 27-23],274 nM
12,CC(C)OC(=O)N1CCC(ON=C2CCN(c3cc(F)c(C(N)=O)cc3F)CC2)CC1 [Example 2-32],25 nM
13,"CC(C)OC(=O)N1CCC(ON=C2CCN(c3cc(F)c(C(=O)NCC(=O)O)cc3F)CC2)CC1 [Example 30-1, 4-{1-[4-(Carboxymethyl-carbamoyl)-2,5-difluoro-phenyl]-piperidin-4-ylideneaminooxy}-piperidine-1-carboxylic acid isopropyl ester]",1130 nM
14,CCOC(=O)c1cnn(Cc2cc(F)c(N3CCC(=NOC4CCN(C(=O)OC(C)C)CC4)CC3)cc2F)c1 [Example 14-11],190 nM
15,"Cc1nc(N2CCC(=NOC3CCN(C(=O)OC(C)C)CC3)CC2)c(F)cc1CO [Example 55-1, 4-(3′-Fluoro-5′-hydroxymethyl-6′-methyl-2,3,5,6-tetrahydro-[1,2′]bipyridinyl-4-ylideneaminooxy)-piperidine-1-carboxylic acid isopropyl ester]",206 nM
16,CC(C)OC(=O)N1CCC(ON=C2CCN(c3ccnc(O)c3)CC2)CC1 [Example 2-4],> 10000 nM
17,"CC(C)OC(=O)N1CCC(ON=C2CCN(c3ccc(S(C)(=O)=O)cc3F)CC2)CC1 [Example 2-1, 4-[1-(2-Fluoro-4-methanesulfonyl-phenyl)-piperidin-4-ylideneaminooxy]-piperidine-1-carboxylic acid isopropyl ester]",47 nM
18,CC(C)OC(=O)N1CCC(ON=C2CCN(c3cc(F)c([S+](C)[O-])cc3F)CC2)CC1 (stereo not shown) [Example 2-41],58 nM
19,"CC(C)OC(=O)N1CCC(ON=C2CCN(c3cc(F)c(CN4CCCC4=O)cc3F)CC2)CC1 [Example 6-1, 4-{1-[2,5-Difluoro-4-(2-oxo-pyrrolidin-1-ylmethyl)-phenyl]-piperidin-4-ylideneaminooxy}-piperidine-1-carboxylic acid isopropyl ester]",40 nM
20,CC(C)OC(=O)N1CCC(ON=C2CCN(c3ncc(Br)c(N(C)C)n3)CC2)CC1 [Example 2-54],> 10000 nM
21,CC(C)OC(=O)N1CCC(ON=C2CCN(c3cc(F)c(-c4cnc(N)nc4)cc3F)CC2)CC1 [Example 27-15],516 nM
22,COC(=O)CCNCc1cc(F)c(N2CCC(=NOC3CCN(C(=O)OC(C)C)CC3)CC2)cc1F [Example 5-7],1150 nM

# Same assay, conditions: the 15th table; read-out: EC50
row,Compound,EC50
1,CC(C)OC(=O)N1CCC(ON=C2CCN(c3cc(F)c(C(=O)N4CCC[C@@H]4CN)cc3F)CC2)CC1 [Example 29-50],133 nM

# Same assay, conditions: the 19th table; unit inferred; read-out: EC 50
row,Compound,EC50
1,CCc1cnc(N2CCC(ON=C3CCN(c4cc(F)c(C(=O)N5C[C@H]6CNC[C@H]6C5)cc4F)CC3)CC2)nc1 [Example 29-111],295 nM
2,CCc1cnc(N2CCC(ON=C3CCN(c4cc(F)c(C(=O)N5CCC[C@H](N)C5)cc4F)CC3)CC2)nc1 [Example 29-89],74 nM
3,CCc1cnc(N2CCC(ON=C3CCN(c4cc(F)c(C(=O)N5CC[C@H](CN)C5)cc4F)CC3)CC2)nc1 [Example 29-120],202 nM
4,CCc1cnc(N2CCC(ON=C3CCN(c4cc(F)c(C(=O)N5CCCC(CN)C5)cc4F)CC3)CC2)nc1 (stereo not shown) [Example 29-124],55 nM
5,CCc1cnc(N2CCC(ON=C3CCN(c4cc(F)c(C(=O)NC5CCCNC5)cc4F)CC3)CC2)nc1 (stereo not shown) [Example 29-127],322 nM
6,CCc1cnc(N2CCC(ON=C3CCN(c4cc(F)c(C(=O)NCC5CCNCC5)cc4F)CC3)CC2)nc1 [Example 29-128],70 nM

# Same assay, conditions: the 32nd table; read-out: EC50
row,Compound,EC50
1,Cc1cc(C(F)(F)F)cc(N2CCC(ON=C3CCN(c4ccc(S(C)(=O)=O)cc4F)CC3)CC2)n1 [Example 63-13],1490 nM
2,CS(=O)(=O)c1ccc(N2CCC(=NOC3CCN(c4ccc(Br)cn4)CC3)CC2)c(F)c1 [Example 63-20],387 nM
3,Cc1cc(C)nc(N2CCC(ON=C3CCN(c4ccc(S(C)(=O)=O)cc4F)CC3)CC2)n1 [Example 63-18],> 10000 nM

# Same assay, conditions: the 33rd table; read-out: EC50
row,Compound,EC50
1,CCCCOC(=O)N1CCC(ON=C2CCN(c3ccc(S(C)(=O)=O)cc3F)CC2)CC1 [Example 64-45],54 nM
2,COC(=O)CC(C)OC(=O)N1CCC(ON=C2CCN(c3ccc(S(C)(=O)=O)cc3F)CC2)CC1 (stereo not shown) [Example 64-22],193 nM
3,CS(=O)(=O)c1ccc(N2CCC(=NOC3CCN(C(=O)OCCN4CCCCC4)CC3)CC2)c(F)c1 [Example 64-28],> 10000 nM
4,CS(=O)(=O)c1ccc(N2CCC(=NOC3CCN(C(=O)OCCN4CCCC4)CC3)CC2)c(F)c1 [Example 64-20],> 10000 nM
5,CC(C)N(CCOC(=O)N1CCC(ON=C2CCN(c3ccc(S(C)(=O)=O)cc3F)CC2)CC1)C(C)C [Example 64-32],> 10000 nM
6,CC#CCOC(=O)N1CCC(ON=C2CCN(c3ccc(S(C)(=O)=O)cc3F)CC2)CC1 [Example 64-4],152 nM

# Same assay, conditions: the 34th table, compounds 65-1 to 65-24; read-out: EC50
row,Compound,EC50
1,CS(=O)(=O)c1ccc(N2CCC(=NOC3CCN(CC(=O)OCc4ccccc4)CC3)CC2)c(F)c1 [Example 65-5],3380 nM
2,CS(=O)(=O)c1ccc(N2CCC(=NOC3CCN(CC(=O)Nc4ccccc4)CC3)CC2)c(F)c1 [Example 65-2],> 10000 nM
3,CC(C)(C)NC(=O)N1CCC(ON=C2CCN(c3ccc(S(C)(=O)=O)cc3F)CC2)CC1 [Example 65-11],1040 nM
4,C=C(C)OC(=O)N1CCC(ON=C2CCN(c3ccc(S(C)(=O)=O)cc3F)CC2)CC1 [Example 65-15],64 nM

# Same assay, conditions: the 36th table, compounds 66-1 to 66-51; read-out: EC50
row,Compound,EC50
1,Cc1cc(CN2CCC(ON=C3CCN(c4ccc(S(C)(=O)=O)cc4F)CC3)CC2)n(C)n1 [Example 66-13],> 10000 nM
2,CS(=O)(=O)c1ccc(N2CCC(=NOC3CCN(Cc4ncc[nH]4)CC3)CC2)c(F)c1 [Example 66-2],> 10000 nM
3,Cn1ccnc1CN1CCC(ON=C2CCN(c3ccc(S(C)(=O)=O)cc3F)CC2)CC1 [Example 66-12],> 10000 nM
4,CC(C)Oc1ccc(CN2CCC(ON=C3CCN(c4ccc(S(C)(=O)=O)cc4F)CC3)CC2)cc1 [Example 66-40],332 nM

# Same assay, conditions: the 43rd table, compounds 75-1 to 75-38; read-out: EC50
row,Compound,EC50
1,CC(C)OC(=O)N1CCC(ON=C2CCN(c3cc(F)c(CC(=O)N4CCNCC4)cc3F)CC2)CC1 [Example 75-25],92 nM
2,CC(C)OC(=O)N1CCC(ON=C2CCN(c3cc(F)c(CC(=O)NC[C@@H]4CCCN4)cc3F)CC2)CC1 [Example 75-10],203 nM
3,CC(C)OC(=O)N1CCC(ON=C2CCN(c3cc(F)c(CC(=O)N4CCC[C@H](N)C4)cc3F)CC2)CC1 [Example 75-13],116 nM
4,CC(C)OC(=O)N1CCC(ON=C2CCN(c3cc(F)c(CC(=O)N4CCCCC4CN4CCCCC4)cc3F)CC2)CC1 (stereo not shown) [Example 75-32],300 nM

# Same assay, conditions: the 44th table, compounds 77-1 to 77-14; read-out: EC50
row,Compound,EC50
1,CCc1cnc(N2CCC(ON=C3CCN(c4cc(F)c(CC(=O)N5CC[C@@H](N(C)C)C5)cc4F)CC3)CC2)nc1 [Example 77-6],9 nM
